Test results reported in patent US20240116946A1 (Gilead Sciences, Inc., priority 2022, published 2024).
Read-outs that look alike come from different tables or passages of the source.

Tests used:
[1] = target: recombinant SARS-CoV-2 Main protease (Mpro) (Severe acute respiratory syndrome coronavirus 2 (2019-nCoV) (SARS-CoV-2), UniProt P0DTD1); assay: Cov Mpro Biochemical IC50 Assay; settings: read-out: MPro IC50
SARS-CoV-2-NLuc = assay: microbe, parasite or virus in culture; assay type: cell-based, SARS Coronavirus 2
[2] = recombinant SARS-CoV-2 Mpro 7.5 nM, fluorogenic peptide substrate 40 μM
[3] = Severe acute respiratory syndrome coronavirus, 48 h; read-out: MPro EC50
[4] = recombinant SARS-CoV-2 Mpro, fluorogenic peptide substrate
[5] = Severe acute respiratory syndrome coronavirus, 48 h, read-out: MPro EC50

| Structure (SMILES) | IC50 [1, 2] | EC50 (SARS-CoV-2-NLuc; [3]) | IC50 [1, 4] | EC50 (SARS-CoV-2-NLuc; [5]) | EC50 (SARS-CoV-2-NLuc; read-out: MPro EC50) |
| --- | --- | --- | --- | --- | --- |
| COc1cc(-c2cc3c(s2)c(=O)n(-c2cncc4ccccc24)c(=O)n3CC(C)C#N)c(Cl)cc1F (stereo not shown) [Example 1096, 3-(6-(2-chloro-4-fluoro-5-methoxyphenyl)-3-(isoquinolin-4-yl)-2,4-dioxo-3,4-dihydrothieno[3,2-d]pyrimidin-1(2H)-yl)-2-methylpropanenitrile] | 10.4 nM | 15.9 nM | – | – | – |
| COc1cccc(Cl)c1-c1ccc2c(=O)n(-c3cncc4ccccc34)c(=O)[nH]c2c1 [Example 58] | – | – | 158 nM | 164 nM | – |
| COc1nn(C)cc1-c1cccc(Cl)c1-c1ccc2c(=O)n(-c3cncc4ccccc34)c(=O)[nH]c2c1 [Example 273] | – | – | 14.9 nM | 6.41 nM | – |
| Cn1nc(-c2cccc(Cl)c2-c2ccc3c(=O)n(-c4cncc5ccccc45)c(=O)[nH]c3c2)c2ccccc21 [Example 263] | – | – | 88.5 nM | 38.1 nM | – |
| COc1ccc(Cl)c(-c2cc3[nH]c(=O)n(-c4cncc5ccc(N6CCO[C@H](C(F)(F)F)C6)cc45)c(=O)c3s2)c1 [Example 415] | 11.7 nM | 26.6 nM | – | – | – |
| COc1cccc(C#N)c1-c1cc2[nH]c(=O)n(-c3cncc4ccccc34)c(=O)c2s1 [Example 536] | 21.2 nM | – | – | 46.4 nM | – |
| COc1cc(-c2cc3c(s2)c(=O)n(-c2cc(C)cnn2)c(=O)n3CCC#N)c(Cl)cc1F [Example 931] | 2.53 nM | – | – | 5.48 nM | – |
| CCCn1cc(-c2cccc(Cl)c2-c2ccc3c(=O)n(-c4cncc5ccccc45)c(=O)[nH]c3c2)c(C(F)(F)F)n1 [Example 200] | – | – | 112 nM | 36 nM | – |
| O=c1c2sc(-c3ccccc3Cl)cc2n(CC2CCOCC2)c(=O)n1-c1cncc2ccccc12 [Example 120, 6-(2-chlorophenyl)-3-(isoquinolin-4-yl)-1-((tetrahydro-2H-pyran-4-yl)methyl)thieno[3,2-d]pyrimidine-2,4(1H,3H)-dione] | – | – | 96.8 nM | 275 nM | – |
| COc1cc(-c2cc3c(s2)c(=O)n(-c2cncc4cccnc24)c(=O)n3CC2(C#N)CC2)c(Cl)cc1F [Example 709] | 6.21 nM | – | – | 2.09 nM | – |
| COc1cc(-c2cc3c(s2)c(=O)n(-c2cncc4[nH]nc(C)c24)c(=O)n3CCC#N)c(Cl)cc1F [Example 768, 3-(6-(2-chloro-4-fluoro-5-methoxyphenyl)-3-(3-methyl-1H-pyrazolo[3,4-c]pyridin-4-yl)-2,4-dioxo-3,4-dihydrothieno[3,2-d]pyrimidin-1(2H)-yl)propanenitrile] | 5.26 nM | – | – | 7.16 nM | – |
| Cn1ncc2cncc(-n3c(=O)c4sc(-c5c(Cl)cccc5-c5cncc(C#N)c5)cc4n(CCC#N)c3=O)c21 [Example 934] | 8.3 nM | – | – | 49 nM | – |
| COc1cc(-c2cc3[nH]c(=O)n(-c4cncc5ccc(C)nc45)c(=O)c3s2)c(Cl)cc1F [Example 461, 6-(2-chloro-4-fluoro-5-methoxyphenyl)-3-(2-methyl-1,6-naphthyridin-8-yl)thieno[3,2-d]pyrimidine-2,4(1H,3H)-dione] | 8.07 nM | 10 nM | – | – | – |
| COc1cc(-c2cc3c(s2)c(=O)n(-c2cncc(C#N)c2)c(=O)n3CCC#N)c(Cl)cc1F [Example 1040, 5-(6-(2-chloro-4-fluoro-5-methoxyphenyl)-1-(2-cyanoethyl)-2,4-dioxo-1,4-dihydrothieno[3,2-d]pyrimidin-3(2H)-yl)nicotinonitrile] | 4.64 nM | 9.66 nM | – | – | – |
| COC(=O)[C@H]1C[C@@H]1c1cncc(-n2c(=O)[nH]c3cc(-c4ccccc4Cl)ccc3c2=O)c1C [Example 126] | – | – | > 50000 nM | > 50000 nM | – |
| COc1ccc(Cl)c(-c2cc3[nH]c(=O)n(-c4cncc5c4cnn5CC(F)(F)F)c(=O)c3s2)c1 [Example 499] | 1920 nM | – | – | 6950 nM | – |
| COc1cc(-c2cc3[nH]c(=O)n(-c4cncc5cnn(C)c45)c(=O)c3s2)c(Cl)cc1F (single isomer, unassigned) [Example 639, 6-(2-chloro-4-fluoro-5-methoxy-phenyl)-3-(1-methylpyrazolo[4,3-c]pyridin-7-yl)-1H-thieno[3,2-d]pyrimidine-2,4-dione] | 114 nM | – | – | – | 173 nM |
| O=c1[nH]c2cc(-c3cccnc3Cl)sc2c(=O)n1-c1cncc2ccccc12 [Example 22] | – | – | 37.1 nM | 120 nM | – |
| Cn1ncc2cncc(-n3c(=O)c4sc(-c5ccc(F)cc5Cl)cc4n(CCC#N)c3=O)c21 (single isomer, unassigned) [Example 956, 3-(6-(2-chloro-4-fluorophenyl)-3-(1-methyl-1H-pyrazolo[4,3-c]pyridin-7-yl)-2,4-dioxo-3,4-dihydrothieno[3,2-d]pyrimidin-1(2H)-yl)propanenitrile] | > 1000 nM | – | – | – | 699 nM |

| Structure (SMILES) | IC50 [1, 2] | EC50 (SARS-CoV-2-NLuc; [3]) | IC50 [1, 4] | EC50 (SARS-CoV-2-NLuc; [5]) | EC50 (SARS-CoV-2-NLuc; read-out: MPro EC50) |
| --- | --- | --- | --- | --- | --- |
| COc1cc(-c2cc3c(s2)c(=O)n(-c2cncc4ccsc24)c(=O)n3CC2(C#N)CC2)c(Cl)cc1F [Example 655] | 3.4 nM | – | – | 3.31 nM | – |
| CC(C)(O)CNc1ccc2cncc(-n3c(=O)[nH]c4cc(-c5ccccc5Cl)sc4c3=O)c2c1 [Example 389] | – | – | 26.7 nM | 131 nM | – |
| COc1cc(-c2cc3c(s2)c(=O)n(-c2cnccc2C)c(=O)n3CCC#N)c(Cl)cc1F (single isomer, unassigned) [Example 1031, 3-[6-(2-chloro-4-fluoro-5-methoxy-phenyl)-3-(4-methyl-3-pyridyl)-2,4-dioxo-thieno[3,2-d]pyrimidin-1-yl]propanenitrile] | 45.6 nM | – | – | – | 75.3 nM |
| O=c1[nH]c2cc(-c3c(Cl)cccc3-c3cn(C4CC4)nn3)ccc2c(=O)n1-c1cncc2ccccc12 [Example 160, 7-(2-chloro-6-(1-cyclopropyl-1H-1,2,3-triazol-4-yl)phenyl)-3-(isoquinolin-4-yl)quinazoline-2,4(1H,3H)-dione] | – | – | 17.2 nM | 56.8 nM | – |
| COc1cc(-c2cc3[nH]c(=O)n(-c4cncc5ccccc45)c(=O)c3s2)c(C#N)cn1 [Example 542] | 249 nM | – | – | 1200 nM | – |
| O=c1c2sc(-c3ccccc3Cl)cc2n(Cc2cccnc2)c(=O)n1-c1cncc2ccccc12 [Example 156] | – | – | 167 nM | 171 nM | – |
| COc1cc(-c2cc3[nH]c(=O)n(-c4cncc5ccccc45)c(=O)c3cc2OC)c(C#N)cc1F [Example 324, 5-fluoro-2-[3-(4-isoquinolyl)-6-methoxy-2,4-dioxo-1H-quinazolin-7-yl]-4-methoxy-benzonitrile] | – | 18.1 nM | 7.02 nM | – | – |
| COc1ccc(Cl)c(-c2cc3[nH]c(=O)n(-c4cncc5ncsc45)c(=O)c3s2)c1 [Example 486] | 5.9 nM | – | – | – | 29.4 nM |
| O=c1[nH]c2cc(-c3ccccc3Cl)sc2c(=O)n1-c1cncc2cccnc12 [Example 133, 6-(2-chlorophenyl)-3-(1,6-naphthyridin-8-yl)thieno[3,2-d]pyrimidine-2,4(1H,3H)-dione] | – | – | 12.8 nM | 27.7 nM | – |
| O=c1[nH]c2cc(-c3c(Cl)cccc3-c3cnn4c3CCCC4)ccc2c(=O)n1-c1cncc2ccccc12 [Example 306] | – | – | 8.21 nM | 5.19 nM | – |
| N#Cc1ccccc1-c1nc2[nH]c(=O)n(-c3cncc4ccccc34)c(=O)c2s1 [Example 118, 2-(6-(isoquinolin-4-yl)-5,7-dioxo-4,5,6,7-tetrahydrothiazolo[4,5-d]pyrimidin-2-yl)benzonitrile] | – | 11700 nM | 290 nM | – | – |
| COc1cc(-c2cc3c(s2)c(=O)n(-c2cncc4cnc(C)n24)c(=O)n3CCC#N)c(Cl)cc1F [Example 980] | 7.64 nM | – | – | 10.4 nM | – |
| CCn1cc2cncc(-n3c(=O)c4sc(-c5cc(OC)c(F)cc5Cl)cc4n(CCC#N)c3=O)c2n1 [Example 913] | 4.31 nM | – | – | 4.53 nM | – |
| N#Cc1cccc(Cl)c1-c1ccc2c(=O)n(-c3cncc4ccccc34)c(=O)[nH]c2c1 [Example 98] | – | – | 213 nM | 198 nM | – |
| COc1ccc(C#N)c(-c2ccc3c(=O)n(-c4cncc5cccnc45)c(=O)[nH]c3c2)c1 [Example 218] | – | 82.8 nM | 20.9 nM | – | – |
| N#Cc1ccccc1-c1cc2[nH]c(=O)n(-c3cncc4ccccc34)c(=O)c2cc1F [Example 67] | – | – | 88.8 nM | 213 nM | – |
| COc1cc(-c2cc3[nH]c(=O)n(-c4cncc5ccn(C)c(=O)c45)c(=O)c3s2)c(Cl)cc1F [Example 976, 6-(2-chloro-4-fluoro-5-methoxy-phenyl)-3-(6-methyl-5-oxo-2,6-naphthyridin-4-yl)-1H-thieno[3,2-d]pyrimidine-2,4-dione] | 8.07 nM | – | – | 15.4 nM | – |
| Cc1cnc(Cl)c(-c2cc3[nH]c(=O)n(-c4cncc5cnn(C)c45)c(=O)c3s2)c1 [Example 669] | 336 nM | – | – | > 1000 nM | – |
| COc1ccc(Cl)c(-c2cc3[nH]c(=O)n(-c4cncc5c4cnn5C)c(=O)c3s2)c1 [Example 497] | 6.24 nM | 19.1 nM | – | – | – |
